Experimental data reported in patent publication US6124281A, “Azolobenzazepine derivatives as neurologically active agents” (Zeneca Limited, priority 1998, dated 2000).
Where two headings read alike, the source gives them in different places.

Assays:
[1] = test system: NMDA-induced excitatory response of red nucleus cells; experiment: Rat Red Nucleus Test; type: in vivo; settings: iv
Method: The purpose of this test is to determine the effects of intravenously administered is glycine antagonists on the NMDA- induced excitatory response of red nucleus cells.
The procedure for the red nucleus test is as follows. Rats are anesthetized with chloral hydrate (400 mg/kg ip) and the femoral vein is catheterized for iv drug administration. Five-barrel micropipettes are stereotaxically positioned in the red nucleus. Typically, three to four of the five barrels are filled as follows: the recording barrel with 2M potassium citrate. the current balancing barrel with 4M NaCl, the drug barrel with 25 mM NMDA, and another drug barrel with 2.5 mM quisqualic acid (QA is only used in selectivity studies). NMDA is iontophoretically applied with an ejection current that is adjusted depending on the sensitivity of each individual red nucleus cell. The NMDA is cycled on and off (usually 30-60 sec. on and 60-120 sec. off) and the firing rate of the cell during each period is recorded. Once the baseline firing rate of the cell has been established, the test drug is administered iv. The inhibitory effect of the drug on the NMDA-induced excitatory response of the red nucleus cell can then be both qualitatively and quantitatively evaluated from the recordings and the raw data accumulated and the results are expressed as an ID50 value (The dose in mg/kg of the test drug which causes 50% inhibition).

[2] = target: T1, N-methyl-D-aspartate receptor (Rattus norvegicus, UniProt P35439); experiment: [3H]-glycine Binding Assay; set-up: species or system Sprague-Dawley rat; settings: 20 nM [3H]-glycine, rat cortex and hippocampus synaptic membranes, pH 7.1, 30 minutes at 4° C.
T1 construct: Freshly dissected cortices and hippocampi are homogenized in 0.32M sucrose; from tissue; host or cells: cortices and hippocampi of adult male Sprague-Dawley rats, synaptic membranes
Method: [^3 H]-glycine Binding Assay
In the [^3 H]-glycine binding assay, neuronal synaptic membranes are prepared from adult (about 250 g) male Sprague-Dawley rats. Freshly dissected cortices and hippocampi are homogenized in 0.32M sucrose (110 mg/mL). Synaptosomes are isolated by centrifugation (1000×g, 10 minutes), the supernatant is pelleted (20,000×g, 20 minutes) resuspended in double-distilled water. The suspension was centrifuged for 20 minutes at 8,000×g. The resulting supernatant and buffy coat are washed twice (48,000×g, 10 minutes, resuspension in double-deionizedwater). The final pellet is quickly frozen (dry icelethanol bath) under double-deionized water and stored at -70° C.
On the day of the experiment, thawed synaptic membranes are homogenized with a Brinkmann Polytron (TM, Brinkmann Instruments, Westbury, N.Y.) tissue homogenizer in 50 mM tris(hydroxymethyl)aminomethane citrate, pH 7.1. The membranes are incubated with 0.04% Sufact-AMPS X100 (TM, Pierce, Rockford, Ill.) in buffer for 20 minutes at 37° C. and washed six times by centrifugation (48,000×g, 10 minutes) and resuspended in buffer. The final pellet is homogenized at 200 mg wet weight/mL of the buffer for the binding assay.
For [^3 H]-glycine binding at the N-methyl-D-aspartate receptor, 20 nM [^3 H]-glycine (40-60 Ci/mmol, New England Nuclear, Boston, Mass.) is incubated with the membranes suspended in 50 mM tris(hydroxymethyl)aminomethane citrate, pH 7.1 for 30 minutes at 4° C. Glycine, 1mM, is used to define the nonspecific binding. Bound [^3 H]-glycine is isolated from free using a Brandel (Biomedical Research and Development Laboratories, Gaithersburg, Md.) cell harvester for vacuum filtration over glass fiber filters (Whatman GFB from Brandel, Gaithersburg, Md.) presoaked in 0.025% polyethylenimine. The samples retained on the glass fiber filters are rinsed 3 times with a total of 2.5 mL ice cold buffer. Radioactivity is estimated by liquid scintillation counting. IC50 values are obtained from a least-squares regression of a logit-log transformation of the data.

infarcted cortex = experiment: Rat Middle Cerebral Artery Test; type: in vivo, SHR rat; settings: intravenously, 10 mg/kg per hour over 4 hours; permanent MCA occlusion
Method: Rat Middle Cerebral Artery Test
Male SHR rats weight 280-320 g are used for these studies. The method used for permanent middle cerebral artery (MCA) occlusion is as described by Brint et al (1988). […] Following occlusions, drugs are administered intravenously via jugular catheter. Twenty-four hours after MCA/common carotid artery occlusion, the animals are sacrificed and their brains quickly removed. Coronal sections of 1 mm thickness are cut using a vibratome and stained with 2,3,5-triphenyl-2H-tetrazolium chloride (TTC) dye. Following staining, necrotic tissue is readily distinguished from the intact brain and the area of infarcted cortex can be traced on an image analyzer. The infarct volume for each section is quantified with an image analyzer, and the total infarct volume is calculated with a program that sums all interval volumes. See S. Brint et al. J. Cerebral Blood Flow 8:474-475 (1988). The statistical analysis of the difference between the volume of ischemic damage in the vehicle control and drug-treated animals is analyzed by Student's t-test. The results are expressed as the percent (%) change in infarct volume and are presented as the mean for animals.

[3] = test system: neuronal damage in the hippocampus; experiment: Gerbil Ischemic Model; type: in vivo, Mongolian gerbil; settings: ip twice (pre- and post-occlusion), 20 mg/kg body weight
Method: Adult female Mongolian gerbils (50-70 g) are anesthetized with 2 to 3% halothane. The bilateral common carotid arteries at the neck are exposed and occluded with microaneurysm clips. After 10 min (unless specified), the clips are removed and the blood flow through the carotid arteries is restored and the skin is sutured. Test compounds are administered intraperitoneally both pre- and post-occlusion, for example 45 minutes before and 5 minutes after occlusion of the carotid arteries. Sham-operated animals are treated in the same manner except that the arteries are not clamped, gross behavioral observations along with motor activity are recorded for 2 hours on the first (24 hours) day following the occlusion. After 4 days, subjects are sacrificed (decapitation), brains are removed, fixed, sectioned and stained with hematoxylin/eosin and cresyl violet.
The brain sections are rated for neuronal damage in the hippocampus using the following rating scale:
1=slight damage (up to 25%)--restricted to CA1 subiculum border
2=moderate damage (up to 50%)--obvious damage, restricted to less than half of CA1 field […]
Sections (7 micron) are evaluated from each brain. […] The average brain damage rating score for each group is recorded, and the damage scores of the drug treated group are compared to the vehicle-treated group using Wilcoxcon-Rank Sum test. […]

[4] = NMDA-induced excitatory response, compounds of the invention, read-out: ID50 (dose of the test drug which causes 50% inhibition)

C/C(=C\C(N)C(=O)O)CP(=O)(O)O (stereo not shown) [CGP 37849, reference compound]
ED50 ([1]; read-out: ID50 of reference agents shown to be active in this test): 1.7 mg/kg

CC(C)OC(=O)c1n[nH]c2c(=O)[nH]c3cc(Cl)ccc3c(=O)c12 [Example 18, 7-Chloro-3-(isopropoxycarbonyl)pyrazolo[3,4-c][1]benzazepine-4,10(1H,9H)-dione]
IC50 [2]: 64 nM
change in infarct volume (infarcted cortex): -19%
ED50 [1, 4]: 3.5 mg/kg

CCCCOC(=O)c1n[nH]c2c(=O)[nH]c3cc(Cl)ccc3c(=O)c12 [Example 27, 3-butoxycarbonyl-7-chloropyrazolo[3,4c][1]benzazepine-4,10(1H,9H)-dione]
IC50 [2]: 229 nM
ED50 [1, 4]: 5.7 mg/kg

CCCOC(=O)c1n[nH]c2c(=O)[nH]c3cc(Cl)ccc3c(=O)c12 [Example 28, 3-propoxycarbonyl-7-chloropyrazolo[3,4-c][1]benzazepine-4,10(1H,9H)-dione]
IC50 [2]: 27 nM
ED50 [1, 4]: 4.6 mg/kg

O=c1[nH]c2cc(Cl)ccc2c(=O)c2n[nH]nc12 [Example 48(d), 7-Chloro-1,2,3-triazolo[4,5-c][1]benzazepine-4,10(1H,9H)-dione]
neuroprotection [3]: 77%

NC1CCN(O)C1=O (stereo not shown) [HA-966, reference compound]
ED50 ([1]; reference agents, read-out: ID50 of reference agents shown to be active in this test): 7.9 mg/kg
